The source of these data is patent US20210348119A1, “COMPOSITIONS AND METHODS FOR CELL CULTURE” (The United States of America as Represented By The …, priority 2018, published 2021).

This assay concerns H9 cells. The assay can be described thus: qHTS for survival of dissociated H9 cells (CellTiter-Glo, 24 hours after seeding). It counts as cell-based, human. The text has this: FIG. 2 schematically illustrates qHTS procedure.
All the screed compounds were received pre-plated at the pre-determined concentrations. […] Curve classification is explained in Huang et al. “Chemical genomics profiling of environmental chemical modulation of human nuclear receptors” Environ. Health. Perspect.

The mark [1] stands for this setting: H9 cell survival normalized to 10 μM Y-27632 (taken to be 100%).
Where [2] appears, read: H9 cell survival, CellTiter-Glo 24 hours after seeding; read-out: AC50 (concentration at 50% efficacy).
Setting [3] is: H9 cell survival, normalized to 10 μM Y-27632.
Setting [4] is: Homo sapiens, H9, 24 h, H9 cell survival normalized to 10 μM Y-27632 (taken to be 100%); read-out: Max (maximum activity value from all tested concentrations).
Where [5] appears, read: Homo sapiens, H9, 24 h, H9 cell survival, CellTiter-Glo 24 hours after seeding; read-out: AC50 (concentration at 50% efficacy).
The mark [6] stands for this setting: Homo sapiens, H9, 24 h, H9 cell survival, normalized to 10 μM Y-27632; read-out: Efficacy (activity range between predicted activities at zero and infinite doses, Hill equation).

“And” between values parts separate entries of the source, which are not always exact repeats. Identical values can stand only once. Like-named read-outs stand apart in the source and are kept apart here.

Take `C=C(CO)C(=O)O[C@H]1CC(=C)[C@@H]2C[C@H](O)C(=C)[C@@H]2[C@H]2OC(=O)C(=C)[C@@H]21` [NCGC00168845-02]: under setting [1], the “Max (maximum activity value from all tested concentrations)” value turned out to be 21.8%. Further, under setting [2], the AC50 stood at 3.61 µM. Under setting [3], the “Efficacy (activity range between predicted activities at zero and infinite doses, Hill equation)” value was 27.1.
Consider `CN(C)c1ccc(Nc2nc(N)n(C(=O)c3c(F)cccc3F)n2)cc1` [NCGC00244250], for which the “Max (maximum activity value from all tested concentrations)” value under setting [1] was 58.27% and 40.04%. Also, under setting [2], the AC50 is 6.56 µM and 8.33 µM. For the same molecule, the “Efficacy (activity range between predicted activities at zero and infinite doses, Hill equation)” value under setting [3] was 23.7 and 39.3.
As to `CC(C)CC(=O)OC1OC=C(CO[C@@H]2O[C@H](CO)[C@@H](O)[C@H](O)[C@H]2O)C2CC(O)C(O)(CO)C12` (stereo partly drawn) [NCGC00347879-02], the “Max (maximum activity value from all tested concentrations)” value under setting [1] is reported as 30.87%. Further, the “Efficacy (activity range between predicted activities at zero and infinite doses, Hill equation)” value under setting [3] is 0.
Regarding `CC1(CCOC2OC(CO)C(O)C(O)C2O)CCC23OC2(C1)C(O)CC1C(C)(C(=O)O)CCCC13C` (stereo not drawn) [NCGC00380931-01], the “Max (maximum activity value from all tested concentrations)” value under setting [1] is 24.96%. The AC50 under setting [2] turned out to be 11.4 µM. Moreover, the “Efficacy (activity range between predicted activities at zero and infinite doses, Hill equation)” value under setting [3] is 28.
On to `C[C@@H]1O[C@@H](OC2C(O[C@H]3[C@H](O[C@H]4CC[C@@]5(C)C(CC[C@]6(C)C5CC=C5C7CC(C)(C)CC(O)[C@]7(C)CC[C@]56C)C4(C)C)O[C@H](C(=O)O)[C@@H](O)[C@@H]3O)OC(CO)C(O)C2O)[C@H](O)[C@H](O)[C@H]1O` (stereo partly drawn) [NCGC00381003-01], for which, under setting [1], the “Max (maximum activity value from all tested concentrations)” value is on record as 22.06%. Besides, the AC50 under setting [2] was 2.48 µM. Under setting [3], the “Efficacy (activity range between predicted activities at zero and infinite doses, Hill equation)” value was 24.5.
With `CC(=O)O[C@H]1C(=O)[C@]2(C)C(O)C[C@H]3OC[C@@]3(OC(C)=O)[C@H]2[C@H](OC(=O)c2ccccc2)[C@]2(O)C[C@H](O)C(C)=C1C2(C)C` (stereo partly drawn) [NCGC00384655-01], under setting [1], the “Max (maximum activity value from all tested concentrations)” value is 23.91%. Further, the AC50 under setting [2] is 1.74 µM. The “Efficacy (activity range between predicted activities at zero and infinite doses, Hill equation)” value under setting [3] is 29.1.
For the molecule `CC1(C)CC[C@]2(C(=O)O[C@@H]3O[C@H](CO[C@@H]4O[C@H](CO)[C@@H](O)[C@H](O)[C@H]4O[C@@H]4O[C@H](CO)[C@H](O)[C@H](O)[C@H]4O)[C@@H](O)[C@H](O[C@@H]4O[C@H](CO)[C@@H](O)[C@H](O)[C@H]4O)[C@H]3O)CC[C@]3(C)C(=CCC4[C@@]5(C)CC[C@H](O[C@@H]6OC[C@@H](O)[C@H](O)[C@H]6O)[C@@](C)(C(=O)O)C5CC[C@]43C)[C@@H]2C1` (stereo partly drawn) [NCGC00384798-01], the “Max (maximum activity value from all tested concentrations)” value under setting [1] came out at 38.81%. Also, the “Efficacy (activity range between predicted activities at zero and infinite doses, Hill equation)” value under setting [3] was 0.
As to `COc1ccc2c(c1O)OC[C@H]1c3ccc(O)cc3O[C@@H]21` [NCGC00384860-01], under setting [1], the “Max (maximum activity value from all tested concentrations)” value worked out at 22.82%. In addition, under setting [2], the AC50 was determined as 18.5 µM. Besides, under setting [3], the “Efficacy (activity range between predicted activities at zero and infinite doses, Hill equation)” value is listed as 29.1.
Taken in the same sequence, the figures for `C=C1CC[C@@H]2[C@@](C)(CO[C@@H]3O[C@H](CO)[C@@H](O)[C@H](O)[C@H]3O)[C@H](O)CC[C@@]2(C)[C@@H]1CC/C(C)=C/CO[C@@H]1O[C@H](CO)[C@@H](O)[C@H](O)[C@H]1O` [NCGC00385284-01] were 26.38%, 0.001 µM and −31.2.
The like results for `C[C@@H]1O[C@@H](O[C@H]2[C@H](O[C@H]3[C@H](O[C@H]4CC[C@@]5(C)C(CC[C@]6(C)C5CC=C5[C@@H]7CC(C)(C(=O)O)C[C@@H](O)[C@]7(C)CC[C@]56C)[C@@]4(C)CO)O[C@H](C(=O)O)[C@@H](O)[C@@H]3O)O[C@H](CO)[C@H](O)[C@@H]2O)[C@H](O)[C@H](O)[C@H]1O` (stereo partly drawn) [NCGC00385739-01] were, in that order, 23.02%, 3.13 µM and 24.5.
Taken in the same sequence, the figures for `COC(=O)c1cc(Br)cnc1N1CCC(NC2CCCCC2)C(O)C1` (stereo not drawn) [NCGC00386932-01] were 22.59%, 0.004 µM and −26.5.
Regarding `NS(=O)(=O)c1ccc(Nc2nc(OCC3CCCCC3)c3[nH]cnc3n2)cc1` [NU-6102], the “Max (maximum activity value from all tested concentrations)” value under setting [1] is 46.11% and 34.8%. The “Efficacy (activity range between predicted activities at zero and infinite doses, Hill equation)” value under setting [3] is 57.9 and 43.8.
Take `Cl.Cl.Fc1ccccc1CNCc1ccc(-c2ccnc3[nH]ccc23)cc1` [OXA 06 dihydrochloride]: under setting [1], the “Max (maximum activity value from all tested concentrations)” value was determined as 108.2%. Also, the AC50 under setting [2] turned out to be 0.736 µM. Besides, the “Efficacy (activity range between predicted activities at zero and infinite doses, Hill equation)” value under setting [3] is 110.
Consider `CCCCC1C(=O)N(c2ccccc2)N(c2ccc(O)cc2)C1=O` (stereo not drawn) [OXYPHENBUTAZONE], for which the “Max (maximum activity value from all tested concentrations)” value under setting [1] turned out to be 22.37%. Further, under setting [2], the AC50 was 23.3 µM. In addition, the “Efficacy (activity range between predicted activities at zero and infinite doses, Hill equation)” value under setting [3] was 25.7.
`CNS(=O)(=O)C[C@H]1CC[C@H](N(C)c2ncnc3[nH]ccc23)CC1` [Oclacitinib (PF-03394197), Oclacitinib]: the Emax is, setting by setting: under setting [4], 93.8%; under setting [6], 99.9%. Also, under setting [5], the AC50 amounted to 20.8 µM.
On to `CC1(C)CC[C@]2(C(=O)O)CC[C@]3(C)C(=CC[C@@H]4[C@@]5(C)CC[C@H](O)C(C)(C)[C@@H]5CC[C@]43C)[C@@H]2C1` [Oleanolic acid], for which the Emax is, setting by setting: under setting [4], 20.3%; under setting [6], -10.7%. Also, the AC50 under setting [5] is 0.37 µM.
Take `C[C@@H]1CCN(C(=O)N2CCCC2)C[C@@H]1N(C)c1ncnc2[nH]ccc12` [PF-956980]: the “Max (maximum activity value from all tested concentrations)” value under setting [1] was found to be 47.75%. The AC50 under setting [2] was 23.3 µM. In addition, under setting [3], the “Efficacy (activity range between predicted activities at zero and infinite doses, Hill equation)” value is on record as 53.
The like results for `N#Cc1cccc(-c2c[nH]c3ncnc(N4CCOCC4)c23)c1` [PF-06447475] were, in that order, 42.8%, 16.5 µM and 44.6.
The like results for `COc1ccccc1-c1c[nH]c2ncc(-c3cncc(C(=O)N(C)C)c3)cc12` [PPY A] were, in that order, 37.42%, 2.93 µM and 41.9.
`CCCCCCCCCCCCCC(=O)O[C@@H]1[C@@H](C)[C@@]2(O)[C@@H](C=C(CO)C[C@]3(O)C(=O)C(C)=C[C@@H]23)[C@@H]2C(C)(C)[C@]12OC(C)=O` [Phorbol 12-myristate 13-acetate]: under setting [1], the “Max (maximum activity value from all tested concentrations)” value came out at 48.49%. Also, under setting [2], the AC50 is 0.21 µM. Under setting [3], the “Efficacy (activity range between predicted activities at zero and infinite doses, Hill equation)” value is 36.8.
Consider `CC(N/C(=N\C#N)Nc1ccncc1)C(C)(C)C` (stereo not drawn) [Pinacidil], for which, under setting [5], the AC50 stood at 21.1 µM. The Emax was 86.4% (Homo sapiens, H9, 24 h, read-out: Efficacy (activity range between predicted activities at zero and infinite doses, Hill equation)); 83.1% (Homo sapiens, H9, 24 h, read-out: Max (maximum activity value from all tested concentrations)).
On to `CC(C)(C)c1nc2c3cc[nH]c(=O)c3c3cc(F)ccc3c2[nH]1` [Pyridone 6], for which the “Max (maximum activity value from all tested concentrations)” value under setting [1] was 28.9%. Under setting [3], the “Efficacy (activity range between predicted activities at zero and infinite doses, Hill equation)” value is recorded as 0.
Regarding `O=S(=O)(NCC1CC1)c1ccc(Nc2nccc(N3CCCc4cc(O)ccc43)n2)cc1` [Pyrintegrin], the “Max (maximum activity value from all tested concentrations)” value under setting [1] turned out to be 27.85%. Besides, the AC50 under setting [2] was found to be 3.29 µM. Moreover, the “Efficacy (activity range between predicted activities at zero and infinite doses, Hill equation)” value under setting [3] was 31.
The like results for `O=C(NCc1cccc(O)c1)Nc1nc(-c2ccncc2)cs1` [RKI-1447] were, in that order, 103.2%, 0.083 µM and 106.
The like results for `Cc1cc(Nc2cc(NC(=O)c3c(Cl)cccc3Cl)ccn2)nc(N)n1` [RO495] were, in that order, 89.28%, 4.69 µM and 73.1.
Taken in the same sequence, the figures for `O=C(Nc1ccc2[nH]ncc2c1)C1CCC1` [Rhodblock 6] were 61.61%, 23.3 µM and 67.9.
Turning to `N#CC[C@H](C1CCCC1)n1cc(-c2ncnc3[nH]ccc23)cn1` [Ruxolitinib, Freebase, Ruxolitinib], the “Max (maximum activity value from all tested concentrations)” value under setting [1] was 87.05%. Also, the “Efficacy (activity range between predicted activities at zero and infinite doses, Hill equation)” value under setting [3] is 48. Also, the AC50 under setting [5] stood at 10.4 µM.
On to `N#CC[C@H](C1CCCC1)n1cc(-c2ncnc3[nH]ccc23)cn1` [Ruxolitinib], for which the AC50 under setting [2] was 8.26 µM and 11.8 µM.
`Cl.O=c1[nH]ccc2cc(OC3CCNCC3)ccc12` [SAR407899 (hydrochloride)]: the “Max (maximum activity value from all tested concentrations)” value under setting [1] is 116.3%. Also, the AC50 under setting [2] came to 2.93 µM. Also, the “Efficacy (activity range between predicted activities at zero and infinite doses, Hill equation)” value under setting [3] is recorded as 112.
For `C[S+]([O-])c1ccc(-c2nc(-c3ccncc3)c(-c3ccc(F)cc3)[nH]2)cc1` (stereo not drawn) [SB-203580], the Emax (Homo sapiens, H9, 24 h; read-out: Efficacy (activity range between predicted activities at zero and infinite doses, Hill equation)) is 37.4%; the Emax (Homo sapiens, H9, 24 h; read-out: Max (maximum activity value from all tested concentrations)) was 35.6%. In addition, for the setting “Homo sapiens; H9 cell survival, CellTiter-Glo 24 hours after seeding; read-out: AC50 (concentration at 50% efficacy)”, the AC50 came out at 15.2 µM.
